From US7847065B2, “CXADRL1 polypeptides relating to human cancers” (Oncotherapy Science, Inc., priority 2002, dated 2010) come the findings set out here.

Ends that are not written are not given here. Peptide text beside a SMILES is read from it.

In the first series the test system is TISI cells (HLA-A24/24).
Method: (§1) Target cells were labeled with 100 μCi of Na2^51CrO4 (Perkin Elmer Life Sciences) for 1 h at 37° C. in a CO2 incubator. When peptide-pulsed targets were used, target cells were incubated with the addition of 20 μg/ml of the peptide for 16 h at 37° C. before the labeling with Na2^51CrO4. Target cells were rinsed and mixed with effectors at a final volume of 0.2 ml in round-bottom microtiter plates. The plates were centrifuged (4 minutes at 800×g) to increase cell-to-cell contact and placed in a CO2 incubator at 37° C. After 4 h of incubation, 0.1 ml of the supernatant was collected from each well and the radioactivity was determined with a gamma counter. In case of evaluating cytotoxicity against target cells that endogenously express RNF43, CXADRL1, or GCUD1, the cytolytic activity was tested in the presence of a 30-fold excess of unlabeled K562 cells to reduce any non-specific lysis due to NK-like effectors. […] The MHC restriction was examined by blocking assay, measuring the inhibition of the cytotoxicity with anti-HLA-class I (W6/32) antibody and anti-HLA-class II antibody, or anti-CD4 antibody and anti-CD8 antibody (DAKO).
(§2) The percentage of specific cytotoxicity was determined by calculating the percentage of specific ^51Cr-release by the following formula: {(cpm of the test sample release−cpm of the spontaneous release)/(cpm of the maximum release−cpm of the spontaneous release)}×100. Spontaneous release was determined by incubating the target cells alone in the absence of effectors, and the maximum release was obtained by incubating the targets with 1N HCl. All determinants were done in duplicate, and the standard errors of the means were consistently below 10% of the value of the mean.
As to GFGRTGLVL [RNF43-24, GFGRTGLVL], the “Cytotoxicity of CTL lines (9mer) ×2 Pep(+)” value worked out at 1%, the “Cytotoxicity of CTL lines (9mer) ×2 Pep(−)” value was determined as 2%, the “Cytotoxicity of CTL lines (9mer) ×20 Pep(+)” value is listed as 8% and the “Cytotoxicity of CTL lines (9mer) ×20 Pep(−)” value turned out to be 9%.

Take HYTPSVAYPW [RNF43-683, HYTPSVAYPW]: the “Cytotoxicity of CTL lines (10mer) ×2 Pep(+)” value was determined as 0%, the “Cytotoxicity of CTL lines (10mer) ×2 Pep(−)” value is listed as −1%, the “Cytotoxicity of CTL lines (10mer) ×20 Pep(+)” value worked out at 0% and the “Cytotoxicity of CTL lines (10mer) ×20 Pep(−)” value worked out at 0%.

In the case of KMDPTGKLNL [RNF43-54, KMDPTGKLNL], the “Cytotoxic activity of peptide-induced CTL line/clone on peptide-pulsed target” value is reported as “modest cytotoxic activity”, the “Cytotoxicity of CTL lines (10mer) ×2 Pep(+)” value is 0%, the “Cytotoxicity of CTL lines (10mer) ×2 Pep(−)” value is −1% and the “Cytotoxicity of CTL lines (10mer) ×20 Pep(+)” value amounted to 5%. The “Cytotoxicity of CTL lines (10mer) ×20 Pep(−)” value worked out at 2%.

In the case of LFNLQKSSL [RNF43-639, LFNLQKSSL], the “Cytotoxic activity of peptide-induced CTL line/clone on peptide-pulsed target” value was “higher cytotoxic activities”, the “Cytotoxicity of CTL lines (9mer) ×2 Pep(+)” value is recorded as 7%, the “Cytotoxicity of CTL lines (9mer) ×2 Pep(−)” value worked out at 5% and the “Cytotoxicity of CTL lines (9mer) ×20 Pep(+)” value came out at 42%. Moreover, the “Cytotoxicity of CTL lines (9mer) ×20 Pep(−)” value is reported as 33%.

Turning to RAPGEQQRL [RNF43-397, RAPGEQQRL], the “Cytotoxicity of CTL lines (9mer) ×2 Pep(+)” value worked out at 15%, the “Cytotoxicity of CTL lines (9mer) ×2 Pep(−)” value is on record as 15%, the “Cytotoxicity of CTL lines (9mer) ×20 Pep(+)” value turned out to be 41% and the “Cytotoxicity of CTL lines (9mer) ×20 Pep(−)” value is reported as 32%.

Take RAPRPCLSL [RNF43-114, RAPRPCLSL]: the “Cytotoxicity of CTL lines (9mer) ×2 Pep(+)” value is reported as 6%, the “Cytotoxicity of CTL lines (9mer) ×2 Pep(−)” value was 9%, the “Cytotoxicity of CTL lines (9mer) ×20 Pep(+)” value amounted to 23% and the “Cytotoxicity of CTL lines (9mer) ×20 Pep(−)” value was 26%.

Turning to RPPRPGPFL [RNF43-368, RPPRPGPFL], the “Cytotoxicity of CTL lines (9mer) ×2 Pep(+)” value turned out to be 0%, the “Cytotoxicity of CTL lines (9mer) ×2 Pep(−)” value was 0%, the “Cytotoxicity of CTL lines (9mer) ×20 Pep(+)” value is reported as 1% and the “Cytotoxicity of CTL lines (9mer) ×20 Pep(−)” value was 0%.

RYQASCRQA [RNF43-247, RYQASCRQA]: the “Cytotoxicity of CTL lines (9mer) ×2 Pep(+)” value turned out to be 28%, the “Cytotoxicity of CTL lines (9mer) ×2 Pep(−)” value came out at 16%, the “Cytotoxicity of CTL lines (9mer) ×20 Pep(+)” value is reported as 71% and the “Cytotoxicity of CTL lines (9mer) ×20 Pep(−)” value came out at 82%.

For the compound SYCTERSGYL [RNF43-449, SYCTERSGYL], the “Cytotoxicity of CTL lines (10mer) ×2 Pep(+)” value came to 0%, the “Cytotoxicity of CTL lines (10mer) ×2 Pep(−)” value amounted to 0%, the “Cytotoxicity of CTL lines (10mer) ×20 Pep(+)” value amounted to 1% and the “Cytotoxicity of CTL lines (10mer) ×20 Pep(−)” value is given as 1%.

For the compound SYQEPGRRL [RNF43-331, SYQEPGRRL], the “Cytotoxicity of CTL lines (9mer) ×2 Pep(+)” value is recorded as 0%, the “Cytotoxicity of CTL lines (9mer) ×2 Pep(−)” value was determined as 0%, the “Cytotoxicity of CTL lines (9mer) ×20 Pep(+)” value worked out at 2% and the “Cytotoxicity of CTL lines (9mer) ×20 Pep(−)” value was 1%.

As for TFCSSLSSDF [RNF43-496, TFCSSLSSDF], the “Cytotoxicity of CTL lines (10mer) ×2 Pep(+)” value is 0%, the “Cytotoxicity of CTL lines (10mer) ×2 Pep(−)” value stood at 0%, the “Cytotoxicity of CTL lines (10mer) ×20 Pep(+)” value is on record as 8% and the “Cytotoxicity of CTL lines (10mer) ×20 Pep(−)” value worked out at 9%.

The subject of a further series is T2 cells (HLA-A*0201).
Method: as §1, §2
In the case of `CC(C)C[C@H](NC(=O)[C@@H](N)CS)C(=O)N[C@@H](Cc1c[nH]cn1)C(=O)N[C@@H](CCC(=O)O)C(=O)N[C@@H](Cc1ccccc1)C(=O)N[C@@H](Cc1c[nH]cn1)C(=O)N[C@@H](CCCNC(=N)N)C(=O)N[C@@H](CC(N)=O)C(=O)N[C@@H](CS)C(=O)N[C@H](C(=O)O)C(C)C` [RNF43-290, CLHEFHRNCV] (H-CLHEFHRNCV-OH), the “Cytotoxicity(%) ×2 Pep(+)” value is recorded as 2.7%, the “Cytotoxicity(%) ×2 Pep(−)” value amounted to 3.7%, the “Cytotoxicity(%) ×20 Pep(+)” value amounted to 9.6% and the “Cytotoxicity(%) ×20 Pep(−)” value came to 9.7%.

Regarding GLTWPVVLI [RNF43-156, GLTWPVVLI], the “Cytotoxicity(%) ×2 Pep(+)” value was −0.5%, the “Cytotoxicity(%) ×2 Pep(−)” value is reported as −0.3%, the “Cytotoxicity(%) ×20 Pep(+)” value was −0.4% and the “Cytotoxicity(%) ×20 Pep(−)” value was 0.7%.
